Results published in patent US20260130906A1, “THERAPY COMPRISING ANTI-CD19 ANTIBODY AND SUMO-ACTIVATING ENZYME INHIBITOR” (TAKEDA PHARMACEUTICAL COMPANY LIMITED, priority 2021, published 2026).

How the values were obtained:
[1] = tested on: NK cells co-cultured with DAUDI cells; assay: Degranulation of NK cells (CD107a); format: cell-based, human; conditions: PBMCs pre-treated 1 μM TAK-981 24 h and/or 0.1 or 10 nM tafasitamab; E:T 10:1; 3 h; vs DMSO control or mono treatments; FIG. 2
Description: (§1) Whole Blood was collected from healthy volunteers. PBMCs were isolated via density-gradient centrifugation using Biocoll (Biochrome) or Pancoll (PAN Biotech) separating solution and SepMate tubes (STEMCELL Technologies).
Freshly isolated PBMCs were first pre-treated with 1 μM TAK-981 or DMSO-containing buffer for 24 hours. PBMCs with or without TAK-981 pre-treatment were co-cultured with DAUDI cells at an E:T ratio of 10:1 and incubated with 0.1 or 10 nM tafasitamab or no antibody at 37° C. and 5% CO2. After 1 hour, 2 μM Monensin was added to each well and CD107a expression was analyzed by flow cytometry after a total incubation time of 3 hours.

[2] = tested on: lymphoma cell lines; assay: ADCC assay (PBMC effector cells); format: cell-based; conditions: PBMCs pre-treated 0.1 μM TAK-981 17-24 h and/or 1 nM tafasitamab; E:T 10:1; 2 h; FIG. 1
Description: A panel of 9 aggressive lymphoma cell lines was analyzed (7 DLBCL and 2 Burkitt lymphoma). OCI-LY10 and TMD8 cells were cultured in Iscove's modified Dulbecco medium supplemented with either 20% human plasma or 10% FCS. All other cell lines were cultured in RPMI medium (Gibco) supplemented with 10%-20% FCS (Sigma). Cells were cultured at 37° C. in 5% CO2.
as §1
PBMC effector cells were treated with 0.1 μM TAK-981 or DMSO as negative control for 17-24 hours. Target cells were stained with 1 μM carboxyfluorescein succinimidyl ester (CFSE). Subsequently, target cells were incubated with pre-treated PBMCs at an effector to target (E:T) ratio of 10:1 in the presence or absence of 1 nM tafasitamab for 2 hours at 37° C. and 5% CO2. Dead cells were stained with 1 μg/ml 4′,6-diamidino-2-phenylindole (DAPI) and flow cytometry was used to determine cytotoxicity against target cells: Cells were gated for viable (DAPI negative) and dead target cells (DAPI positive). The specific cytotoxicity was defined as the percentages of dead target cells in the treated sample substracted by the percentage of dead target cells in the control sample without antibody.

[3] = tested on: DAUDI; assay: ADCP assay (macrophages); format: cell-based, human; conditions: macrophages pre-treated 1 μM TAK-981 and/or 1 nM tafasitamab, E:T 2:1, 3 h, FIG. 4
Description: Monocytes were positively selected from PBMCs using CD14 MicroBeads on a MACS LS column according to the manufacturer's protocol (Miltenyi Biotec). Isoltaed cells were re-suspended in RPMI medium supplemented with 10% FCS and 1× GlutaMax. Monocytes were maturated into macrophages in T-flasks for 6 to 7 days in the presence of 50 ng/ml M-CSF.
After maturation, macrophages were stained with 2 μM CFSE and detached using 5 mM EDTA and scraping. After washing with PBS, macrophages were re-suspended in medium containing either DMSO (negative control) or 1 μM TAK-981 and allowed to re-attach in 96 well culture plates for 16-24 hours. Target cells were stained using the CellTrace Violet Cell Proliferation Kit (Invitrogen) and co-cultured with pre-treated macrophages in the presence or absence of 1 nM tafasitamab for 3 hours at an E:T ratio of 2:1. The cells were detached using 0.05% Trypsin-EDTA and transferred into multi-well flow cytometry plates. Using flow cytometry the percentage of phagocytosis was evaluated, defined as the percentage of double positive cells out of all CellTrace Violet positive cells.

[4] = tested on: OCI-Ly10 human xenograft tumor model; assay: Study 2: OCI-Ly10 human xenograft tumor model; format: in vivo, CB17 SCID mice; conditions: for GRI % / Tumor volume on Day 25 (±SEM): OCI-Ly10; for GRI %: Day 25, vs vehicle; for Tumor volume on Day 25 (±SEM): in mm³ (unit assumed); for tumor growth inhibition as a single agent (in words): human OCI-Ly10 DLBCL mouse model
Description: The differences in the tumor growth trends over time between pairs of treatment groups were assessed by fitting each animal's data to a simple exponential growth model and comparing the mean growth rates of the two groups, as described in more detail below. The difference in the growth rates was summarized by the GRI, which is the reduction in growth rate experienced by the treatment group relative to that of the reference group, expressed as a fraction of the vehicle growth rate.
A GRI greater than 100% is interpreted as tumor regression when the vehicle group is the same as the reference group. A negative value of the GRI means that the tumors in the treatment group grew faster than the tumors in the reference group. Statistical significance was determined using an unpaired t-test.
Low tumor volumes can cause problems with the data analysis, so all measurements below 25 cubic mm (including 0 values) were excluded from the analysis. After this exclusion step, the tumor volume was assumed to follow an exponential growth model. More specifically, for a given animal and treatment group,
Combination analysis was performed to determine if there was a benefit from combining drug treatments. This analysis was also based on the estimated tumor growth rates. The measure of synergy was defined as
Here, μAB, μA, μB, and μControl are the mean growth rates for the combination, drug A, drug B, and control groups, respectively. As before, μV is the mean tumor growth rate for the vehicle group, which in most cases is the same as the control group. The standard error of the synergy score was calculated as the square root of the sum of squared standard errors across the four groups. The degrees of freedom were estimated using the Welch-Satterthwaite equation. A hypothesis test was performed to determine if the synergy score differed from 0. P-values were calculated by dividing the synergy score by its standard error and tested against a t-distribution (two-tailed) with the above-calculated degrees of freedom. A P value of less than 0.05 is statistically significant.
The combination results can be interpreted as follows. Statistically significant negative synergy scores indicate a synergistic combination (“Syn.”). Statistically significant positive synergy scores indicate a sub-additive combination (“Sub-add.”) when the combination performs better (i.e. has a lower growth rate) than the best performing single agent. Statistically significant positive synergy scores indicate an antagonistic combination (“Antag.”) when the combination performs worse than the best performing single agent. Scores that are not statistically significant should be considered additive (“Add.”).
OCI-Ly10 is a human DLBCL cell line. An OCI-Ly10 human xenograft tumor model was generated by subcutaneous inoculation in the flank of 8 week old female CB17 SCID mice (Charles River Laboratories, Wilmington, MA) with 4.0×10^6 OCI-Ly10 cells (cell suspension in 0.1 ml IMDM with Matrigel 1:1). When the mean tumor volume reached approximately 175 mm^3, the animals were randomized into one vehicle control group and 7 treatment groups (n=7/group) as described in Table 2a. Mice were then dosed with 20% HPβCD or Compound I-263a and/or tafasitamab over a 3 week period. In the combination treatment groups, I-263a was administered first, followed immediately by the administration of tafasitamab. Tumor growth and body weight were measured twice per week during the treatment and post-treatment periods, and mice were humanely euthanized once they had reached their humane endpoint. Tumors were measured using Vernier calipers and volumes were calculated using standard equation: V=W^2×L/2, where V=volume, W=width, and L=length for the tumor.
A 0.75 mg/mL stock solution of I-263a was formulated weekly in 20% HPβCD and administered intravenously (IV) based on an average body weight using a 0.2 mL dosing volume. Final dose of I-263a received was 7.5 mg/kg. […]

Row | Compound | percentage of CD107+ NK cells [1] | Specific killing of lymphoma cell lines (specific cytotoxicity) [2] | Phagocytosis [3] | GRI % ([4]; I-263a 7.5 mg/kg IV BIW) | Tumor volume on Day 25 (±SEM) ([4]; I-263a 7.5 mg/kg IV BIW 3 weeks) | tumor growth inhibition as a single agent (in words) [4] | GRI % ([4]; tafasitamab 3 mg/kg IP BIW) | GRI % ([4]; tafasitamab 10 mg/kg IP BIW) | GRI % ([4]; tafasitamab 20 mg/kg IP BIW) | Tumor volume on Day 25 (±SEM) ([4]; tafasitamab 3 mg/kg IP BIW 3 weeks) | Tumor volume on Day 25 (±SEM) ([4]; tafasitamab 10 mg/kg IP BIW 3 weeks) | Tumor volume on Day 25 (±SEM) ([4]; tafasitamab 20 mg/kg IP BIW 3 weeks)
1 | Cc1sc(C(=O)c2cncnc2N[C@@H]2C[C@H](COS(N)(=O)=O)[C@@H](O)C2)cc1[C@@H]1NCCc2ccc(Cl)cc21 [Compound I-263a, [(1R,2S,4R)-4-{[5-({4-[(1R)-7-chloro-1,2,3,4-tetrahydroisoquinolin-1-yl]-5-methyl-2-thienyl}carbonyl)pyrimidin-4-yl]amino}-2-hydroxycyclopentyl]methyl sulfamate] | elevated percentage of CD107+ NK cells | resulted in specific killing | effectively phagocytosed | 55% | 615.9 ± 106.4 | inhibits tumor growth |  |  |  |  |  | 
2 | Tafasitamab: humanized monoclonal antibody that targets the antigen CD19, engineered in the IgG Fc-region to enhance ADCC; sequences in Table 1 | elevated percentage of CD107+ NK cells | resulted in specific killing | effectively phagocytosed |  |  | inhibits tumor growth | 37% | 43% | 36% | 701 ± 94.2 | 745.1 ± 154.2 | 809.2 ± 129.1
